# Data published in patent US20250017840A1, “NOVEL SENOTHERAPY PEPTIDE AND COMPOSITION CONTAINING THE SAME” (AMOREPACIFIC CORPORATION, priority 2023, published 2025).
# Legend:
# [1] = system: skin senescent cells (aged skin fibroblasts, DI model and RS model); assay: Survival rate of aged cells (CCK-8), selective apoptosis efficacy on skin senescent cells; format: cell-based, human; conditions: 100 μg/ml for 3 days, FIG. 2; for apoptosis effect of senescent cells (survival rate of aged cells, CCK-8): DI model or RS model skin fibroblasts; for selective apoptosis effect on the senescent cells versus normal cells: senescent versus normal skin fibroblasts
# Method: Specifically, in the case of the DI model, the skin fibroblasts (Normal human dermal fibroblasts, Lonza, Switzerland) were cultured in DMEM Medium (Lonza, Switzerland) containing 10% FBS, and then were inoculated into a chamber slide (Thermo Fisher Scientific, USA) at 1×10^3 cells per well and cultured in a CO2 incubator of 5% concentration at 37° C. for 24 hours. The cultured wells were treated with each of Doxorubicin-hydrochloride (Sigma) and IGF-1 (Sigma) in a concentration of 100 ng/ml for 4 days to induce early senescence of the skin fibroblasts. As a control group, the normal skin fibroblasts that were not treated with Dox or IGF-1 were prepared. Thereafter, for the immunofluorescence stain, the cell culture solution was washed with PBS three times and fixed in 4% paraformaldehyde for 30 minutes. Then, the skin fibroblast sample was washed with PBS containing 0.2% Triton X-100 three times, added to PBS containing 3% BSA, and left for 1 hour. Next, the sample was incubated in 1% BSA containing rabbit polyclonal anti-FOXO4 antibody (SAB4501887, Sigma) (1:500 dilution) at 4° C. overnight to allow the antibody to bind to an antigen contained in the skin fibroblasts. Thereafter, the Sample was washed with the PBS three times, incubated with Alexa Fluor®488-conjugated goat polyclonal secondary antibody (A32731, ThermoFisher Scientific) (1:1000 dilution) against rabbit IgG-H&L at a room temperature for 1 hour, and then washed with the PBS three times. Next, a drop of the mounting solution containing DAPI was placed on a microscope slide glass and fixed by raising the coverslip itself. The fixed sample was observed by a confocal microscope (LSM 980, Zeiss, Germany).
# In the case of the RS model, the aged skin fibroblasts were prepared by continuously culturing skin fibroblasts (Normal human dermal fibroblasts, Lonza, Switzerland) in DMEM Medium (Lonza, Switzerland) containing 10% FBS over 30 to 40 times. For the immunofluorescence staining test, each of the aged skin fibroblasts (p41) and the normal skin fibroblasts was inoculated into a chamber slide (Thermo Fisher Scientific, USA) at 1×10^3 cells per well, and cultured in a CO2 incubator of 5% concentration at 37° C. for 48 hours. Thereafter, the cell culture solution was washed with PBS three times and fixed in 4% paraformaldehyde for 30 minutes. Next, the skin fibroblast sample was washed with PBS containing 0.2% Triton X-100 three times, added to PBS containing 3% BSA, and left for 1 hour. Then, the sample was incubated in 1% BSA containing a rabbit polyclonal anti-FOXO4 antibody (SAB4501887, Sigma) (1:500 dilution) at 4° C. overnight to allow the antibody to bind to an antigen contained in the skin fibroblasts. Thereafter, the sample was washed with the PBS three times, incubated with Alexa Fluor®488-conjugated goat polyclonal secondary antibody (A32731, ThermoFisher Scientific) (1:1000 dilution) against rabbit IgG-H&L at a room temperature for 1 hour, and then was washed with the PBS three times. […]
# As in Test Example 1, after the skin fibroblasts (DI model) that induced senescence by treating with each of Doxorubicin and IGF-1 in a concentration of 100 ng/ml for 4 days or the fibroblasts (RS model) aged by culturing the skin fibroblasts up to passage 40 were treated with a peptide (21a-D) consisting of the amino acid sequence of […] […] ([…]) in each concentration of 100 μg/ml for 3 days, a survival rate of the aged cells was measured. […]
# [2] = system: skin senescent cells (DI model and RS model); assay: SA-β-gal stain and microscopic observation of apoptosis efficacy on skin senescent cells; format: cell-based, human; conditions: treated as in Test Example 2, FIGS. 3A and 3B
# Method: In the same manner as that of Test Example 2, after the DI model and the RS model were treated with a peptide (21a-D) consisting of the amino acid sequence of […] (SEQ ID NO: 1) and a peptide (FOXO4-DRI) consisting of the amino acid sequence of […] (SEQ ID NO: 4), SA-3-gal (senescent associated-β-galactosidase) stain and microscopic observation were performed to visually confirm an apoptosis efficacy of the skin senescent cells. The SA-3-Gal stain was performed according to the protocol using the Senescence Cell Histochemical Staining Kit (CS0030, Sigma, USA), and after 24 hours of the staining, it was confirmed whether or not the cells were stained through an optical microscope.
# p53 and FOXO4 = target: T1, p53 and FOXO4 (Homo sapiens, UniProt P04637); assay: Immunofluorescence observation of cytoplasmic movement of p53; format: cell-based; conditions: DI-treated aged skin fibroblasts; 100 ug/ml for 3 days; FIG. 4
# T1 construct: endogenous in cells; host or cells: skin fibroblasts made senescent with doxorubicin and IGF-1 (DI model)
# T1 sequence (P04637 whole entry): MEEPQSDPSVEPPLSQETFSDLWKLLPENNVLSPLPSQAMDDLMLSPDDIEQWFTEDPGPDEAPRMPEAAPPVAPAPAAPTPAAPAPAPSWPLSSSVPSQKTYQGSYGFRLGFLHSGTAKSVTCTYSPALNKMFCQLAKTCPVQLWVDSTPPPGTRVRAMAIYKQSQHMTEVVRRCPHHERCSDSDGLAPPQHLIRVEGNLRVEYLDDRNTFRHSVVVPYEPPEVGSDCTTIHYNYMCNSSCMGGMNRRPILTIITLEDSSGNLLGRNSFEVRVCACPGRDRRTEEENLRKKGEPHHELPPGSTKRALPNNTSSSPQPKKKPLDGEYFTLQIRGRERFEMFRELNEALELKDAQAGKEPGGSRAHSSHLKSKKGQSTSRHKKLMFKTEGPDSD
# Method: It was confirmed through the immunofluorescence (IF) stain experiment whether or not this phenomenon was observed when the skin senescent cells were treated with the peptide having the amino acid sequence of SEQ ID NO: 1 according to an embodiment of the present invention. The aged skin fibroblasts treated with DI (Doxorubicin/IGF-1) were treated with the peptide 21a-D in the same manner as in Test Example 2, and then the expression and cytoplasmic movement of FOXO4 and p53 were observed.
# Specifically, the skin fibroblasts were inoculated into a chamber slide (Thermo Fisher Scientific, USA) at 1×10^3 cells per well and cultured in a 5% CO2 incubator at 37° C. for 24 hours. The cultured wells were treated with each of Dox and IGF-1 in a concentration of 100 ng/ml for 4 days to induce early senescence of the skin fibroblasts, and then treated with the peptide 21a-D in a concentration of 100 ug/ml for 3 days followed by being further cultured. For immunofluorescence stain, the cell culture solution was washed with PBS three times and fixed by treating it with ice-cold methanol at −20° C. for 10 minutes. Next, it was added into PBS containing 3% BSA and left for 1 hour. […]
# MMP-1 = MMP-1 expression in senescent cells by qPCR; format: cell-based, human; conditions: DI model senescent cells, treated as in Test Example 2; FIG. 5
# Method: After treating the DI model with the peptide (21a-D) consisting of the amino acid sequence of […] (SEQ ID NO: 1) and the peptide (FOXO4-DRI) consisting of the amino acid sequence of […] (SEQ ID NO: 4) in the same manner as in Test Example 2 above, an ability to suppress the expression of MMP-1 in the senescent cells was identified. After recovering the cultured cells, total RNA was isolated using a TRIzol™ solution (TRIzol™ Reagent, Invitrogen) extraction method. 1 μg of the isolated RNA was synthesized into cDNA using reverse transcriptase (RevertAid Firist strand cDNA synthesis kit, Thermofisher), and then diluted to a final concentration of 200 μl. In order to perform PCR, a mixing kit was prepared by mixing […] (Hs00899658_m1, ThermoFisher Scientific), 10 μl of Taqman universal master mix II with UNG (Applied Biosystems), and 5 μl of distilled water to allow the mixture to be diluted to 16 μl. 16 μl of the mixing kit and 4 μl of cDNA were mixed to perform qPCR under the following reaction conditions. The reaction conditions were 95° C., initialization reaction for 10 minutes, denaturation at 95° C. for 15 seconds, annealing at 60° C. for 60 seconds, and extension reaction at 50° C. for 20 seconds, which were set to be performed in a PCR device (7500 Fast Real-time PCR system, Applied Biosystems) with repetition of 40 times.
Sequence,"apoptosis effect of senescent cells (survival rate of aged cells, CCK-8) [1]","number of senescent cells (SA-β-gal stain, microscopic observation) [2]",selective apoptosis effect on the senescent cells versus normal cells [1],binding of p53 and FOXO4 in the nucleus (p53 and FOXO4),cytoplasmic movement of p53 (immunofluorescence) (p53 and FOXO4),"expression of MMP-1 (qPCR, corrected for GAPDH) (MMP-1)"
AYSQNGWANRRPRRRQRRKKRG [22a-D],minimal,,,,,
AYSQNGWANRRRRGGRRRRRR [21a-D],,significantly reduced,selective apoptosis of only skin senescent cells was induced,suppressed the binding of p53 and FOXO4 in the nucleus,p53 moved to a cytoplasm in the nucleus,suppressed
"LTLRKEPASEIAQSILEAYSQNGWANRRSGGKRPPPRRRQRRKKRG [FOXO4-DRI, reference compound]",apoptosis effect had on the senescent cells as well as even on the normal cells,,weak,,,
QRKKRRQRRRPRRNAWGNQSYA [22a-L],minimal,,,,,
